Results as given in patent US12552825B2 (Zikani Therapeutics, Inc., priority 2019, dated 2026).
≈ marks a conversion by molar mass, not a printed value.

How the values were obtained:
Type in all cases: cell-based
K. pneumoniae MP-546 = assay: MIC determination by CLSI broth dilution, K. pneumoniae MP-546; conditions: Klebsiella pneumoniae, MP546, CLSI broth dilution; strain MP-546
A. baumannii MP-15 = assay: MIC determination by CLSI broth dilution, A. baumannii MP-15; conditions: Acinetobacter baumannii, MP15, strain MP-15, read-out: MIC A. baumanii MP-15
S. aureus MP-12 = assay: microbe, parasite or virus in culture; conditions: Staphylococcus aureus, MP12, read-out: MIC S. aureus MP-12
E. coli MP-4 = assay: MIC determination by CLSI broth dilution, E. coli MP-4; conditions: Escherichia coli, MP4, CLSI broth dilution; strain MP-4
P. aeruginosa MP-3 = assay: MIC determination by CLSI broth dilution, P. aeruginosa MP-3; conditions: Pseudomonas aeruginosa, MP3, strain MP-3

| SMILES | MIC (K. pneumoniae MP-546) | MIC (A. baumannii MP-15) | MIC (S. aureus MP-12) | MIC (E. coli MP-4) | MIC (P. aeruginosa MP-3) |
| --- | --- | --- | --- | --- | --- |
| CO[C@]1(C)C[C@@H](C)CN(C)[C@@H](CCCN(C)C)COC(=O)C(C)(C)C(=O)[C@H](C)[C@H]1O[C@@H]1O[C@H](C)C[C@H](N(C)C)[C@H]1O [Compound 6, (3S,6R,8R,9R,10R)-9-(((2S,3R,4S,6R)-4-(dimethylamino)-3-hydroxy-6-methyltetrahydro-2H-pyran-2-yl)oxy)-3-(3-(dimethylamino)propyl)-8-methoxy-4,6,8,10,12,12-hexamethyl-1-oxa-4-azacyclotridecane-11,13-dione] | < 4 µg/mL | > 32 µg/mL | > 32 µg/mL | < 4 µg/mL | > 32 µg/mL |
| CNC[C@H]1COC(=O)C(C)(C)C(=O)[C@H](C)[C@@H](O[C@@H]2O[C@H](C)C[C@H](N(C)C)[C@H]2O)[C@](C)(OC)C[C@@H](C)CN1C [Compound 9, (3S,6R,8R,9R,10R)-9-(((2S,3R,4S,6R)-4-(Dimethylamino)-3-hydroxy-6-methyltetrahydro-2H-pyran-2-yl)oxy)-8-methoxy-4,6,8,10,12,12-hexamethyl-3-((methylamino)methyl)-1-oxa-4-azacyclotridecane-11,13-dione] | 4 to 32 µg/mL (≈ 7.36 to 58.9 µM) | > 32 µg/mL | > 32 µg/mL | 4 to 32 µg/mL (≈ 7.36 to 58.9 µM) | > 32 µg/mL |
| CO[C@]1(C)C[C@@H](C)CN(C)[C@@H](CCCN(C)C(C)C)COC(=O)C(C)(C)C(=O)[C@H](C)[C@H]1O[C@@H]1O[C@H](C)C[C@H](N(C)C)[C@H]1O [Compound 11, (3S,6R,8R,9R,10R)-9-(((2S,3R,4S,6R)-4-(dimethylamino)-3-hydroxy-6-methyltetrahydro-2H-pyran-2-yl)oxy)-3-(3-(isopropyl(methyl)amino)propyl)-8-methoxy-4,6,8,10,12,12-hexamethyl-1-oxa-4-azacyclotridecane-11,13-dione] | < 4 µg/mL | > 32 µg/mL | 4 to 32 µg/mL (≈ 6.52 to 52.1 µM) | < 4 µg/mL | > 32 µg/mL |
| CO[C@]1(C)C[C@@H](C)CN(C)[C@@H](CN(C)C(=O)CN(C)C)COC(=O)C(C)(C)C(=O)[C@H](C)[C@H]1O[C@@H]1O[C@H](C)C[C@H](N(C)C)[C@H]1O [Compound 13, 2-(dimethylamino)-N-(((3S,6R,8R,9R,10R)-9-(((2S,3R,4S,6R)-4-(dimethylamino)-3-hydroxy-6-methyltetrahydro-2H-pyran-2-yl)oxy)-8-methoxy-4,6,8,10,12,12-hexamethyl-11,13-dioxo-1-oxa-4-azacyclotridecan-3-yl)methyl)-N-methylacetamide] | 4 to 32 µg/mL (≈ 6.36 to 50.9 µM) | > 32 µg/mL | > 32 µg/mL | 4 to 32 µg/mL (≈ 6.36 to 50.9 µM) | > 32 µg/mL |
| C=C[C@@H]1COC(=O)C(C)(C)C(=O)[C@H](C)[C@@H](O[C@@H]2O[C@H](C)C[C@H](N(C)C)[C@H]2O)[C@](C)(OC)C[C@@H](C)CN1C [Compound 14, (3R,6R,8R,9R,10R)-9-(((2S,3R,4S,6R)-4-(Dimethylamino)-3-hydroxy-6-methyltetrahydro-2H-pyran-2-yl)oxy)-8-methoxy-4,6,8,10,12,12-hexamethyl-3-vinyl-1-oxa-4-azacyclotridecane-11,13-dione] | 4 to 32 µg/mL (≈ 7.59 to 60.8 µM) | > 32 µg/mL | > 32 µg/mL | 4 to 32 µg/mL (≈ 7.59 to 60.8 µM) | > 32 µg/mL |
| CNC[C@H]1COC(=O)C(C)(C)C(=O)[C@H](C)[C@@H](O[C@@H]2O[C@H](C)C[C@H](N(C)C)[C@H]2O)[C@](C)(OC)C[C@@H](C)CN1 [Compound 15, (3S,6R,8R,9R,10R)-9-(((2S,3R,4S,6R)-4-(Dimethylamino)-3-hydroxy-6-methyltetrahydro-2H-pyran-2-yl)oxy)-8-methoxy-6,8,10,12,12-pentamethyl-3-((methylamino)methyl)-1-oxa-4-azacyclotridecane-11,13-dione] | > 32 µg/mL | > 32 µg/mL | > 32 µg/mL | 4 to 32 µg/mL (≈ 7.55 to 60.4 µM) | > 32 µg/mL |
| CO[C@]1(C)C[C@@H](C)CN(C)[C@@H](CCCNC(C)C)COC(=O)C(C)(C)C(=O)[C@H](C)[C@H]1O[C@@H]1O[C@H](C)C[C@H](N(C)C)[C@H]1O [Compound 16, (3S,6R,8R,9R,10R)-9-(((2S,3R,4S,6R)-4-(dimethylamino)-3-hydroxy-6-methyltetrahydro-2H-pyran-2-yl)oxy)-3-(3-(isopropylamino)propyl)-8-methoxy-4,6,8,10,12,12-hexamethyl-1-oxa-4-azacyclotridecane-11,13-dione] | 4 to 32 µg/mL (≈ 6.67 to 53.3 µM) | > 32 µg/mL | 4 to 32 µg/mL (≈ 6.67 to 53.3 µM) | < 4 µg/mL | > 32 µg/mL |
| CO[C@]1(C)C[C@@H](C)CN[C@H](CCSC)COC(=O)[C@H](C)C(=O)[C@H](C)[C@H]1O[C@@H]1OC(C)CC(N(C)C)C1O (stereo partly drawn) [Compound 202] | – | > 32 µg/mL | > 32 µg/mL | > 32 µg/mL | > 32 µg/mL |
| CO[C@]1(C)C[C@@H](C)CN[C@H](CC[S+](C)[O-])COC(=O)[C@H](C)C(=O)[C@H](C)[C@H]1O[C@@H]1OC(C)CC(N(C)C)C1O (stereo partly drawn) [Compound 203] | – | > 32 µg/mL | > 32 µg/mL | > 32 µg/mL | > 32 µg/mL |
| CO[C@]1(C)C[C@@H](C)CN[C@H](CO)COC(=O)[C@H](C)C(=O)[C@H](C)[C@H]1O[C@@H]1OC(C)CC(N(C)C)C1O (stereo partly drawn) [Compound 204] | – | > 32 µg/mL | > 32 µg/mL | > 32 µg/mL | > 32 µg/mL |
| CO[C@]1(C)C[C@@H](C)CN[C@@H](Cc2c[nH]cn2)COC(=O)[C@H](C)C(=O)[C@H](C)[C@H]1O[C@@H]1OC(C)CC(N(C)C)C1O (stereo partly drawn) [Compound 205] | – | > 32 µg/mL | > 32 µg/mL | > 32 µg/mL | > 32 µg/mL |
| CO[C@]1(C)C[C@@H](C)CN[C@@H](C)COC(=O)[C@H](C)C(=O)[C@H](C)[C@H]1O[C@@H]1OC(C)CC(N(C)C)C1O (stereo partly drawn) [Compound 206] | – | > 32 µg/mL | > 32 µg/mL | 4 to 32 µg/mL (≈ 8.22 to 65.8 µM) | > 32 µg/mL |
| CO[C@]1(C)C[C@@H](C)CN[C@H](C)COC(=O)[C@H](C)C(=O)[C@H](C)[C@H]1O[C@@H]1OC(C)CC(N(C)C)C1O (stereo partly drawn) [Compound 207] | – | > 32 µg/mL | > 32 µg/mL | > 32 µg/mL | > 32 µg/mL |
| CO[C@]1(C)C[C@@H](C)CN[C@@H](Cc2ccccc2)COC(=O)[C@H](C)C(=O)[C@H](C)[C@H]1O[C@@H]1OC(C)CC(N(C)C)C1O (stereo partly drawn) [Compound 208] | – | > 32 µg/mL | 4 to 32 µg/mL (≈ 7.11 to 56.9 µM) | > 32 µg/mL | > 32 µg/mL |
| CO[C@]1(C)C[C@@H](C)CN[C@@H](Cc2ccc(O)cc2)COC(=O)[C@H](C)C(=O)[C@H](C)[C@H]1O[C@@H]1OC(C)CC(N(C)C)C1O (stereo partly drawn) [Compound 209] | – | > 32 µg/mL | 4 to 32 µg/mL (≈ 6.91 to 55.3 µM) | > 32 µg/mL | > 32 µg/mL |
| CC[C@H]1OC(=O)[C@H](C)C(=O)[C@H](C)[C@@H](O[C@@H]2OC(C)CC(N(C)C)C2O)[C@](C)(OC)C[C@@H](C)CN[C@H]1C (stereo partly drawn) [Compound 210] | – | > 32 µg/mL | > 32 µg/mL | > 32 µg/mL | > 32 µg/mL |
| CC[C@H]1OC(=O)[C@H](C)C(=O)[C@H](C)[C@@H](O[C@@H]2OC(C)CC(N(C)C)C2O)[C@](C)(OC)C[C@@H](C)CN(C)[C@H]1C (stereo partly drawn) [Compound 211] | – | > 32 µg/mL | > 32 µg/mL | > 32 µg/mL | > 32 µg/mL |
| CO[C@]1(C)C[C@@H](C)CNC(CO)(CO)COC(=O)[C@H](C)C(=O)[C@H](C)[C@H]1O[C@@H]1OC(C)CC(N(C)C)C1O (stereo partly drawn) [Compound 212] | – | > 32 µg/mL | > 32 µg/mL | > 32 µg/mL | > 32 µg/mL |
| C=C[C@@H]1COC(=O)[C@H](C)C(=O)[C@H](C)[C@@H](O[C@@H]2OC(C)CC(N(C)C)C2O)[C@](C)(OC)C[C@@H](C)CN1 (stereo partly drawn) [Compound 213] | – | > 32 µg/mL | > 32 µg/mL | > 32 µg/mL | > 32 µg/mL |
| CC[C@@H]1COC(=O)[C@H](C)C(=O)[C@H](C)[C@@H](OC2OC(C)CC(N(C)C)C2O)[C@](C)(OC)C[C@@H](C)CN1 (stereo partly drawn) [Compound 215] | – | > 32 µg/mL | > 32 µg/mL | > 32 µg/mL | > 32 µg/mL |
| CO[C@]1(C)C[C@@H](C)CN[C@H](CNC2COC2)COC(=O)[C@H](C)C(=O)[C@H](C)[C@H]1O[C@@H]1O[C@H](C)C[C@H](N(C)C)[C@H]1O [Compound 216] | – | > 32 µg/mL | > 32 µg/mL | 4 to 32 µg/mL (≈ 7.17 to 57.4 µM) | > 32 µg/mL |
| CO[C@]1(C)C[C@@H](C)CN[C@H](CNCc2ccc(F)cn2)COC(=O)[C@H](C)C(=O)[C@H](C)[C@H]1O[C@@H]1O[C@H](C)C[C@H](N(C)C)[C@H]1O [Compound 217] | – | > 32 µg/mL | > 32 µg/mL | > 32 µg/mL | > 32 µg/mL |
| CO[C@]1(C)C[C@@H](C)CN[C@H](Cn2cc(-c3cccc(N)n3)nn2)COC(=O)[C@H](C)C(=O)[C@H](C)[C@H]1O[C@@H]1O[C@H](C)C[C@H](N(C)C)[C@H]1O [Compound 219, (3R,6R,8R,9R,10R)-3-((4-(6-aminopyridin-2-yl)-1H-1,2,3-triazol-1-yl)methyl)-9-(((2S,3R,4S,6R)-4-(dimethylamino)-3-hydroxy-6-methyltetrahydro-2H-pyran-2-yl)oxy)-8-methoxy-6,8,10,12-tetramethyl-1-oxa-4-azacyclotridecane-11,13-dione] | – | > 32 µg/mL | > 32 µg/mL | > 32 µg/mL | > 32 µg/mL |
| CO[C@]1(C)C[C@@H](C)CN[C@H](CNCCCCCCn2ccnn2)COC(=O)[C@H](C)C(=O)[C@H](C)[C@H]1O[C@@H]1O[C@H](C)C[C@H](N(C)C)[C@H]1O [Compound 220] | – | > 32 µg/mL | > 32 µg/mL | > 32 µg/mL | > 32 µg/mL |
| CO[C@]1(C)C[C@@H](C)CN[C@H](CN)COC(=O)[C@H](C)C(=O)[C@H](C)[C@H]1O[C@@H]1OC(C)CC(N(C)C)C1O (stereo partly drawn) [Compound 221] | > 32 µg/mL | – | > 32 µg/mL | – | – |
